Source: patent publication US20040072368A1, “Lipoprotein receptor” (priority 2002, published 2004)
Values belong to the molecule of their own block, whether it stands above or below them.

Tests used:
HepG2 cells [1] = test: TG-HDL2 internalisation assay; type: cell-based, human; settings: for effect on internalisation of 125I-TG-HDL2: 75 μg/ml 125I-TG-HDL2, 10 min at 37° C., 10 μg/ml free-apoA-I, 100 nM ADP, 100 nM ATP, 0.2 U/ml apyrase, 100 nM EGF
Protocol: (§1) Panel 1, 2 and 3. TG-HDL2 and LDL internalization by HepG2 cells. Cells are incubated for 10 min at 37° C. with 75 μg/ml of ^125I-TG-HDL2 (panels 1 and 3), TG-HDL2 labelled with ^3H-cholesteryl ester (panel 1 “chol”) or ^1251-LDL (panel 2). Alternatively, 10 μg/ml free-apoA-I (A, G), 100 nM ADP (B, H), both free-apoA-I and ADP at the same concentrations as above (C), 100 nM ATP (D), 0.2 U/ml apyrase (E), 100 nM EGF (F), or increasing concentrations of 2MeS-ADP (▪) and ATPγS (□) (panel 3) are added to the incubation medium. Results are expressed as the percentage of stimulation related to the value of internalisation obtained without addition of any compound (corresponding to a value of 400 ng TG-HDL2/mg of cell protein). The same experiments are performed on IHH cells with similar results (data not shown).
HepG2 cells are incubated for 10 min at 37° C. in DMEM pH 6.6 with 75 μg/ml of ^125I-TGHDL 2 and in the presence of increasing concentrations of IF, without (panel A) or with (panel B) free-apoA-I (10 μg/ml). Results are expressed as the percentage of stimulation as referred to the value of internalisation obtained without addition of any compound (corresponding to a value of 400 ng TG-HDL2/mg of cell protein).
Cells are washed three times and pre-incubated for 30 min at 37° C. in serum free DMEM. ^125I triglyceride rich-HDL2 (75 μg/ml) are added on the cells and incubated at 37° C. for various time. Depending on the experiment, free apolipoprotein A-I (10 μg/ml) or other compounds, are added to the incubation medium. At each incubation time, cells are washed with cold DMEM and the release of radioactive ligands associated to the cell surface is performed at 4° C., for 90 min in DMEM. The radioactivity internalised into the cells and the protein content is determined as in the competition assays. Non-specific internalisation is analysed in the presence of an excess of 600 μg/ml of HDL3. Results are expressed as the percentage of stimulation related to the value of internalisation obtained without addition of any compound. The same method is used for the measurement of LDL internalisation.

[2] = biological target: T1, β-subunit of ATP synthase (Homo sapiens, UniProt P06576); test: Flow cytometry detection of cell surface β-subunit of ATP synthase; type: cell-based; settings: excess of free-apoA-I (100 nM), HepG2 cells
T1 construct: endogenous in cells; host or cells: HepG2 (ATCC)
T1 sequence (P06576 48-529): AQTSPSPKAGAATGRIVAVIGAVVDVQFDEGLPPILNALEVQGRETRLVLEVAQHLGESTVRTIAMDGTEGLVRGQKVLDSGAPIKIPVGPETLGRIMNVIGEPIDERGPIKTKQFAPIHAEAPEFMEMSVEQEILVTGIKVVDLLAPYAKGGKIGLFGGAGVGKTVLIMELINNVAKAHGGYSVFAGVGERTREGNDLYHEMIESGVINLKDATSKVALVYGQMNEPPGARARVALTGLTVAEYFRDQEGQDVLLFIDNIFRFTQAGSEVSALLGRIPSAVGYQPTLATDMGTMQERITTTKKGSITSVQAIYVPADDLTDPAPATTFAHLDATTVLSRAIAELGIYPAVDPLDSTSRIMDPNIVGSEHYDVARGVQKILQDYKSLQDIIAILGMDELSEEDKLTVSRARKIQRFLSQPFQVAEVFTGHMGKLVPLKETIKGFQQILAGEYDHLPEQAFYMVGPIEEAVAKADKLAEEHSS
T1 sequence (P25705 44-553 partner): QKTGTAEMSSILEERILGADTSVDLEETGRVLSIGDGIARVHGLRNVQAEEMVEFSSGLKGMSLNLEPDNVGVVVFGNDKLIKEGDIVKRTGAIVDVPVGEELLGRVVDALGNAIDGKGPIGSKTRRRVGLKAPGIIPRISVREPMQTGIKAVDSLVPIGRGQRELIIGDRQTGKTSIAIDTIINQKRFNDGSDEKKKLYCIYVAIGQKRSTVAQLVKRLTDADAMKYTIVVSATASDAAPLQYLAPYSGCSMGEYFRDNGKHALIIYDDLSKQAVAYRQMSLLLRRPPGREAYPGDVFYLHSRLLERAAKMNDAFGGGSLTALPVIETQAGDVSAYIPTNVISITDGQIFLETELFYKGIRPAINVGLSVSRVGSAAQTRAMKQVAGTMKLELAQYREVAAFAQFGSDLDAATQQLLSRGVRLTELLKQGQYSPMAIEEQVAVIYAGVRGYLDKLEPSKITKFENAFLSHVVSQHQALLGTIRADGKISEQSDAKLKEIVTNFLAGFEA
T1 sequence (P36542 26-298 partner): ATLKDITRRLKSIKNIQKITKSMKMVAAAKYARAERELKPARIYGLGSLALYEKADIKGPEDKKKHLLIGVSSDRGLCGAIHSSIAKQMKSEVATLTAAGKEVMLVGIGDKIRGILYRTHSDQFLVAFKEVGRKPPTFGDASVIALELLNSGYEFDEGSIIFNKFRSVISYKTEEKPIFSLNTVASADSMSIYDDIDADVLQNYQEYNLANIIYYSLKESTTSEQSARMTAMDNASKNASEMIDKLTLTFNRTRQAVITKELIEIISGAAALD
T1 sequence (P30049 23-168 partner): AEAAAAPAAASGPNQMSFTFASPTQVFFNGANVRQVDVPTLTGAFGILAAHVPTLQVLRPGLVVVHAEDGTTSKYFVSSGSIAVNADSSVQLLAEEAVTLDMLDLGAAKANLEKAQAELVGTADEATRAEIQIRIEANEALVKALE
T1 sequence (P56381 2-51 partner limits assumed): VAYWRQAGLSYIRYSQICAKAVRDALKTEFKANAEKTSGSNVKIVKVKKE
Protocol: HepG2 and CHO cells were analyzed by fluorescence-assisted flow cytometry. Plots are shown for HepG2 (panel A) and CHO (panel C) where solid lines represent cells incubated with an anti b-subunit of ATP synthase mouse monoclonal IgG2a in absence (e) or presence (d) of 100 nM apoA-I, 250 μg/ml of FI-ATPase (c) or incubated with an isotypic control mouse IgG2a (a) and […] anti cytochrome oxidase subunit I mouse monoclonal IgG2a (b, dashed lines). In panel B and D, the histograms are expressed as the mean relative fluorescence of the curves a to e on HepG2 (B) or CHO cells (D).
For analysis of the cell surface EGF receptor, HepG2 cells are preincubated in medium with or without 20 nM EGF for 10 min at 37° C. For flow cytometry analysis, HepG2 and CHO cells are detached by incubation with Ca2+, Mg2+free PBS containing 2 mM EDTA, pH 7.4, fixed in 3% paraformaldehyde and pelleted in a microfuge. Cells are incubated at 20° C. for 1 h in PBS, pH 7.4 containing 1% BSA with either mouse monoclonal antibodies against the human β-subunit of ATP synthase, the human cytochrome oxidase subunit I, the human EGF receptor or against isotypic control IgG. […] The mean relative fluorescence after excitation at a wavelength of 488 nm is determined for each sample on a Coulter XL 4C flow cytometer and analysed with CELLQUEST software (Becton-Dickenson).

HepG2 cells [3] = test: Competitive inhibition of binding of 125I-labeled apoA-I to HepG2 cells; parameters: species or system human; settings: 1 μg/ml 125I-apoA-I, no competitor, 2 h at 4° C.
Protocol: HepG2 cells (panel A) and submitochondrial particles (panel B) are incubated for 2 h at 4° C. in the presence of 1 μg/ml ^125I-labeled apoA-1 and 5 μg/ml ^125I-labeled HDL3 respectively, in the presence of increasing concentrations of either unlabeled apoA-I (◯, panel A), unlabeled HDL3 (●, panel B), anti β-subunit of ATP synthase mouse monoclonal IgG2a (□) or purified isotype mouse IgG2a (♦). The 100% specific binding corresponds to 25,5 ng apoA-I bound per mg of cell proteins (panel A) and 2050 ng HDL3 protein bound per mg of mitochondrial proteins (panel B). Fab fragments from anti-β-subunit of ATP synthase are also used as competitors and results are identical to anti β-subunit IgG2a (data not shown). The results are representative of three independent series of experiments.
The competition experiments are performed at 4° C. for 2 h as previously described (6). […] Cells are washed twice with ice-cold PBS (maximum washing time is 15 s), lysed with 500 μl of 0.1 N NaOH, and the NaOH digest is used for radioactivity measurement and protein determination. […] Filters are used for radioactivity measurements. […] Data are expressed as the percentage of the specific binding measured in the absence of competitor versus the log of competitor concentration (in nM).

[4] = biological target: T2, cell surface ATP synthase (Homo sapiens, UniProt P06576); test: Cell surface ADP generation assay (ATP hydrolysis), HPLC/TLC; type: cell-based; settings: HepG2
T2 construct: endogenous in cells; host or cells: HepG2
T2 sequence (P06576 48-529): as the sequence (P06576 48-529) above
T2 sequence (P25705 44-553 partner): as the sequence (P25705 44-553 partner) above
T2 sequence (P36542 26-298 partner): as the sequence (P36542 26-298 partner) above
T2 sequence (P30049 23-168 partner): as the sequence (P30049 23-168 partner) above
T2 sequence (P56381 2-51 partner limits assumed): as the sequence (P56381 2-51 partner limits assumed) above
Protocol: (§2) ^32Pi and ADP (panels A and B) or [α-32P] ATP (panels C, D, E and F) are added to the HepG2 cell medium as described in Experimental Procedures, and the cells are incubated for 10 min at 37° C. with 10 μg/ml apoA-I (panels B and D), 100 nM IF1 (panel E), or both IF1 […] and apoA-I at the same concentrations as above (panel F). Control experiments are performed with neither apo AI nor IF1 added into the cell medium (panel A and C). Supernatants are recovered and analysed by HPLCs.
(§3) Confluent HepG2 in 6-well plates are washed in DMEM, then incubated at 37° C. for 10 min in DMEM pH 6.6 with 0.1 μCi [α-32P] ATP for ADP generation assay, or with 0.1 μCi 32Pi and ADP (100 nM final) for ATP generation assay. Depending on the experiment, IF1 (100 nM final) or apoA-I (10 μg/ml final) are added in the reaction mixture. Supernatants are removed and analysed using two different systems: 1) by HPLC coupled to a radioactivity detector on a Whatman Partisphere 5 SAX column (Whatman International Ltd., UK) as described previously (13); calibration is done with radiolabelled nucleotides. 2) by thin layer chromatography in the solvent NaCl 2.4%/NH4OH/H2O/MeOH (12.5/15/27.5/50, v/v); radioactive spots are counted by liquid scintillation.

[5] = biological target: T2, cell surface ATP synthase; test: Cell surface ATP generation assay (ATP synthesis), HPLC/TLC; type: cell-based; settings: 10 μg/ml free-apoA-I, 10 min, HepG2
Protocol: as §2, §3

HepG2 cells [6] = test: LDL internalisation assay; type: cell-based, human; settings: 10 μg/ml free-apoA-I or 100 nM ADP, 10 min at 37° C.
Protocol: as §1
Cells are washed three times and pre-incubated for 30 min at 37° C. in serum free DMEM. ^125I triglyceride rich-HDL2 (75 μg/ml) are added on the cells and incubated at 37° C. for various time. […] The radioactivity internalised into the cells and the protein content is determined as in the competition assays. Non-specific internalisation is analysed in the presence of an excess of 600 μg/ml of HDL3. Results are expressed as the percentage of stimulation related to the value of internalisation obtained without addition of any compound. […]

EGF receptor = EGF receptor internalisation by flow cytometry; type: cell-based, human; settings: HepG2, 10 min pre-incubation, 10 μg/ml free-apoA-I or 100 nM ADP
Protocol: Panel 4. Internalisation of EGF receptor by HepG2 cells. Cells are pre-incubated for 10 min in serum-free medium with (J) or without (K) […] EGF, or with 10 μg/ml free-apoA-I (L), 100 nM ADP (M). The amount of EGF receptor is measured by Flow Cytometry using anti-EGF receptor antibody. As a control experiment for the efficacy of EGF receptor antibody, isotypic IgG are used (I). Results are expressed as the mean relative cell fluorescence and receptor internalisation is related to lower fluorescence.
For analysis of the cell surface EGF receptor, HepG2 cells are preincubated in medium with or without 20 nM EGF for 10 min at 37° C. For flow cytometry analysis, HepG2 and CHO cells are detached by incubation with Ca2+, Mg2+free PBS containing 2 mM EDTA, pH 7.4, fixed in 3% paraformaldehyde and pelleted in a microfuge. Cells are incubated at 20° C. for 1 h in PBS, pH 7.4 containing 1% BSA with either mouse monoclonal antibodies against the human β-subunit of ATP synthase, the human cytochrome oxidase subunit I, the human EGF receptor or against isotypic control IgG. Cells are washed in PBS/BSA 1% and incubated at 20° C. for 30 min with goat […] IgG conjugated to fluorescein isothiocyanate. After a final wash, cells are pelleted and resuspended in PBS/BSA 1% at a density of 1×10^6 cells/ml. The mean relative fluorescence after excitation at a wavelength of 488 nm is determined for each sample on a Coulter XL 4C flow cytometer and analysed with CELLQUEST software (Becton-Dickenson).

HepG2 cells and IHH = test: Cholesterol efflux; type: cell-based, human; settings: for influence on cholesterol efflux: range of 1 nM to 10 μM
rat liver = test: TG-HDL2 internalisation by perfused rat liver (in situ); type: in vivo
Protocol: The liver from male Whistar rats (7-8 weeks old) were perfused in situ during 45 minutes at 37° C. in Ringer medium (pH 6.8) with 35 μg/ml of 1251-TG-HDL2 with or without 1 μM IF1. Livers were then extensively washed at 4° C. and radioactivity counted. n=7 per group. Values represent means±SEM, with p<0.02 (unpaired t-test). Control fluorescence-assisted flow cytometry experiments have shown the presence of both the Band a-chain ATP synthase at the cell surface of isolated rat hepatocytes (not shown).

Molecule: apyrase
effect on internalisation of 125I-TG-HDL2 (HepG2 cells [1]): completely abolishes

reduction of immunoreactivity of the anti β-subunit antibody [2]: more than 3 fold
increase of [α32P]-ADP generated from [α-32P]-ATP ([4]; 10 μg/ml apoA-I, 10 min at 37° C.): up to 79%
Molecule: free-apoA-I: major apoprotein of HDL, single polypeptide chain of 243 amino acid residues, isolated from HDL3 by ion-exchange chromatography
100% specific binding (HepG2 cells [3]): 25,5 ng apoA-I bound per mg of cell proteins
ATP synthesis from ADP plus 32Pi [5]: no synthesis of ATP is detected
radioactivity internalised into the cells (125I-labeled TG-HDL2) (HepG2 cells [1]; increasing free-apoA-I from 0.1 to 20 μg/ml, HepG2 or IHH cells, preliminary experiment): increased
stimulation of endocytosis of 125I-labeled LDL (HepG2 cells [6]): no stimulation
number of EGF-R at the cell surface (EGF receptor): neither free apoA-I (FIG. 6-4L) nor ADP (FIG. 6-4M) are able to reduce
stimulation of the cholesterol efflux (HepG2 cells and IHH; free-apoA-I): 2 to 2.5 fold

Molecule: EGF: known to induce endocytosis of the EGF receptor (NSDSECPLSHDGYCLHDGVCMYIEALDKYACNCVVGYIGERCQYRDLKWWELR; Epidermal growth factor; UniProt P01133 971-1023, looked up)
effect on internalisation of 125I-TG-HDL2 (HepG2 cells [1]): does not stimulate
number of EGF-R at the cell surface (EGF receptor): strongly reduces

Molecule: Nc1ncnc2c1ncn2[C@@H]1O[C@H](COP(=O)(O)OP(=O)(O)OP(O)(O)=S)[C@@H](O)[C@H]1O [ATPγS]
stimulation of TG-HDL2 endocytosis (HepG2 cells [1]; ATPγS at 10 μM): 15%
effect on TG-HDL2 endocytosis (HepG2 cells [1]; ATPγS at low concentrations): weak effect

Molecule: Nc1ncnc2c1ncn2[C@@H]1O[C@H](COP(=O)(O)OP(=O)(O)OP(=O)(O)O)[C@@H](O)[C@H]1O [ATP]
effect on internalisation of 125I-TG-HDL2 (HepG2 cells [1]): small stimulation

Molecule: CSc1nc(N)c2ncn([C@@H]3O[C@H](COP(=O)(O)OP(=O)(O)O)[C@@H](O)[C@H]3O)c2n1 [2MeS-ADP]
effect on TG-HDL2 endocytosis (HepG2 cells [1]; 2MeS-ADP at 10 to 100 nM): stimulatory effect
effect on TG-HDL2 endocytosis (HepG2 cells [1]; 2MeS-ADP at higher concentrations (1 μM to 10 μM)): inhibition of endocytosis

Molecule: Nc1ncnc2c1ncn2[C@@H]1O[C@H](COP(=O)(O)OP(=O)(O)O)[C@@H](O)[C@H]1O [ADP, reference compound]
effect on internalisation of 125I-TG-HDL2 (HepG2 cells [1]): stimulates
stimulation of endocytosis of 125I-labeled LDL (HepG2 cells [6]): no stimulation
number of EGF-R at the cell surface (EGF receptor): neither free apoA-I (FIG. 6-4L) nor ADP (FIG. 6-4M) are able to reduce
influence on cholesterol efflux (HepG2 cells and IHH): no influence

decrease of [α-32P]-ADP generated as compared to control ([4]; 100 nM IF1, 10 min at 37° C.): 48%
effect on the free-apoA-I stimulation of ATP hydrolysis ([4]; 100 nM IF1 plus 10 μg/ml apoA-I, 10 min at 37° C.): could inhibit the stimulatory effect
Molecule: IF1: natural inhibitor protein of mitochondrial F1-ATPase, inhibits the hydrolytic activity of the ATP synthase
effect on stimulation of TG-HDL2 endocytosis by free-apoA-I (HepG2 cells [1]; higher concentrations of IF1, with free-apoA-I 10 μg/ml, DMEM pH 6.6): completely abolish
effect on TG-HDL2 internalisation (HDL endocytosis) (HepG2 cells [1]; increasing concentrations of IF1, without free-apoA-I, DMEM pH 6.6, 10 min at 37° C.): dramatic decrease
influence on cholesterol efflux (HepG2 cells and IHH): no influence
TG-HDL2 internalisation by perfused rat liver (rat liver; 1 μM IF1, 35 μg/ml 125I-TG-HDL2, 45 minutes at 37° C., means±SEM, n=7): 2.597 ± 1.026 μgTG-HDL2/g of liver
decrease of TG-HDL2 internalisation by the liver (rat liver; perfused rat liver, 45 min, 1 μM IF1): up to 45%
